Measurements: patent US12492181B2, “Gem-disubstituted piperidine melanocortin subtype-2 receptor (MC2R) antagonists and uses thereof” (Crinetics Pharmaceuticals, Inc., priority 2019, dated 2025)

target: T1, hMC2 receptor (crude hMC2R membranes from CRE-bla-CHO-K1 cells stably expressing hMC2 receptor and hMRAP accessory protein) (Homo sapiens, UniProt Q01718); assay: hMC2 membrane binding assay ([125I]ACTH (1-39) Tyr23, SPA); settings: displacement of 0.2 nM [125I]ACTH (1-39) Tyr23 from hMC2R membranes, 1.5 hours at room temperature; read-out: MC2R binding potency
T1 construct: crude membrane fractions
How it was run: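 Ki values come from non-linear regression of SPA scintillation counts, with compounds displacing [125I]ACTH(1-39) Tyr23. Membranes come from CRE-bla-CHO-K1 cells stably expressing hMC2 receptor together with hMRAP. They are preincubated with WGA-coated PVT SPA beads in 50 mM HEPES pH 7.4 with 0.20% BSA, Mg2+, Ca2+ and protease inhibitors.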

T1 sequence (Q01718 whole entry): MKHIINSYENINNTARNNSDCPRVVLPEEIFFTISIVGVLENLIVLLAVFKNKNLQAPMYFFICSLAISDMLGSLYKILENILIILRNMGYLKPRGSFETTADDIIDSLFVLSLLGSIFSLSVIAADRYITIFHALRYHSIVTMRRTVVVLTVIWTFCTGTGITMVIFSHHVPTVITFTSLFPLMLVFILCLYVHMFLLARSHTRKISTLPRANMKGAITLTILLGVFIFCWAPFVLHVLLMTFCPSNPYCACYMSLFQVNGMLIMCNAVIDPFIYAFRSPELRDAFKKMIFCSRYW
T1 sequence (Q8TCY5 whole entry partner): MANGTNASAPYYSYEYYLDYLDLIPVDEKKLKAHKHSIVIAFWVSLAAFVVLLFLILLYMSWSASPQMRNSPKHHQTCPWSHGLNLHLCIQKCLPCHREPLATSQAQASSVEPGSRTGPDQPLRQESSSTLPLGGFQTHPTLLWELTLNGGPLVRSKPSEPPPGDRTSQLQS

SMILES | Ki
CN1CC[C@@H](NC(=O)C2(c3ccc(-c4cccc5c4OCC5)nc3)CCN(c3ccc(C(F)(F)F)cc3C#N)CC2)C1 [Compound 1-53, 1-[2-cyano-4-(trifluoromethyl)phenyl]-4-[6-(2,3-dihydro-1-benzofuran-7-yl)pyridin-3-yl]-N-[(3R)-1-methylpyrrolidin-3-yl]piperidine-4-carboxamide] | 10 to 100 nM
COc1ccccc1-c1ccc(C2(C(=O)NC[C@H]3COCCN3C)CCN(c3ccc(C(F)(F)F)cc3C#N)CC2)cn1 [Compound 1-328, 1-[2-cyano-4-(trifluoromethyl)phenyl]-4-[6-(2-methoxyphenyl)pyridin-3-yl]-N-{[(3S)-4-methylmorpholin-3-yl]methyl}piperidine-4-carboxamide] | 10 to 100 nM
CN1CC[C@@H](NC(=O)C2(c3ccc(-c4cccc5ccn(C)c45)nc3)CCN(c3ccc(C(F)(F)F)cc3C#N)CC2)C1 [Compound 1-190, 1-[2-cyano-4-(trifluoromethyl)phenyl]-4-[6-(1-methyl-1H-indol-7-yl)pyridin-3-yl]-N-[(3R)-1-methylpyrrolidin-3-yl]piperidine-4-carboxamide] | 10 to 100 nM
CCOc1ncccc1-c1ccc(C2(NC(=O)N[C@@H]3CCN(C)C3)CCN(c3ccc(C(F)(F)F)cc3C#N)CC2)cn1 [Compound 2-19, 1-{1-[2-cyano-4-(trifluoromethyl)phenyl]-4-{2′-ethoxy-[2,3′-bipyridin]-5-yl}piperidin-4-yl}-3-[(3R)-1-methylpyrrolidin-3-yl]urea] | < 10 nM
CNCCCNC(=O)C1(c2cnc(-c3ccccc3OC)c(F)c2)CCN(c2ccc(C(F)(F)F)cc2C#N)CC1 [Compound 1-197, 1-[2-cyano-4-(trifluoromethyl)phenyl]-4-[5-fluoro-6-(2-methoxyphenyl)pyridin-3-yl]-N-[3-(methylamino)propyl]piperidine-4-carboxamide] | < 10 nM
COc1ccccc1-c1ncc(C2(NC(=O)N[C@H]3CCN(C)C3)CCN(c3ccc(C(F)(F)F)cc3C#N)CC2)cc1F [Compound 2-51, 1-{1-[2-cyano-4-(trifluoromethyl)phenyl]-4-[5-fluoro-6-(2-methoxyphenyl)pyridin-3-yl]piperidin-4-yl}-3-[(3S)-1-methylpyrrolidin-3-yl]urea] | < 10 nM
CCOc1ncccc1-c1ccc(C2(C(=O)NCCNC)CCN(c3ccc(C(F)(F)F)cc3C#N)CC2)cn1 [Compound 1-14, 1-[2-cyano-4-(trifluoromethyl)phenyl]-4-{2′-ethoxy-[2,3′-bipyridin]-5-yl}-N-[2-(methylamino)ethyl]piperidine-4-carboxamide] | < 10 nM
CCOc1ncccc1-c1ccc(C2(C(=O)NCCNC)CCN(c3ccc(C(F)(F)F)cc3Cl)CC2)cn1 [Compound 1-225, 1-[2-chloro-4-(trifluoromethyl)phenyl]-4-{2′-ethoxy-[2,3′-bipyridin]-5-yl}-N-[2-(methylamino)ethyl]piperidine-4-carboxamide] | < 10 nM
CO[C@@H]1CN(C)C[C@@H]1NC(=O)C1(c2ccc(-c3cccn3C)nc2)CCN(c2ccc(C(F)(F)F)cc2C#N)CC1 (racemic) [Compound 1-267, rac-1-[2-cyano-4-(trifluoromethyl)phenyl]-N-[(3S,4R)-4-methoxy-1-methylpyrrolidin-3-yl]-4-[6-(1-methyl-1H-pyrrol-2-yl)pyridin-3-yl]piperidine-4-carboxamide] | < 10 nM
CCOc1ncccc1-c1ccc(C2(C(=O)N[C@H]3CCN(C)C3)CCN(c3ccc(C(F)(F)F)cc3F)CC2)nn1 [Compound 1-193, 4-[6-(2-ethoxypyridin-3-yl)pyridazin-3-yl]-1-[2-fluoro-4-(trifluoromethyl)phenyl]-N-[(3S)-1-methylpyrrolidin-3-yl]piperidine-4-carboxamide] | < 10 nM
COc1ccccc1-c1ccc(C2(C(=O)NC[C@H]3CCN3C)CCN(c3ccc(C(F)(F)F)cc3C#N)CC2)cn1 [Compound 1-244, 1-[2-cyano-4-(trifluoromethyl)phenyl]-4-[6-(2-methoxyphenyl)pyridin-3-yl]-N-{[(2R)-1-methylazetidin-2-yl]methyl}piperidine-4-carboxamide] | < 10 nM
CCOc1ncccc1-c1ccc(C2(C(=O)NC[C@@H](CO)N(C)C)CCN(c3ccc(C(F)(F)F)cc3C#N)CC2)cn1 [Compound 1-48, 1-[2-cyano-4-(trifluoromethyl)phenyl]-N-[(2S)-2-(dimethylamino)-3-hydroxypropyl]-4-{2′-ethoxy-[2,3′-bipyridin]-5-yl}piperidine-4-carboxamide] | < 10 nM

Next, values leading:

Ki | SMILES
< 10 nM | CCOc1ncccc1-c1ccc(C2(C(=O)N[C@H]3CCN(C)C3)CCN(c3ccc(C(F)(F)F)cc3Cl)CC2)cn1 [Compound 1-141, 1-[2-chloro-4-(trifluoromethyl)phenyl]-4-{2′-ethoxy-[2,3′-bipyridin]-5-yl}-N-[(3S)-1-methylpyrrolidin-3-yl]piperidine-4-carboxamide]
< 10 nM | CN1CC[C@H](NC(=O)C2(c3ccc(-c4cccn4C)nn3)CCN(c3ccc(C(F)(F)F)cc3C#N)CC2)C1 [Compound 1-168, 1-[2-cyano-4-(trifluoromethyl)phenyl]-4-[6-(1-methyl-1H-pyrrol-2-yl)pyridazin-3-yl]-N-[(3S)-1-methylpyrrolidin-3-yl]piperidine-4-carboxamide]
< 10 nM | CN1CC(CNC(=O)C2(c3ccc(-c4cccn4C)nc3)CCN(c3ccc(C(F)(F)F)cc3C#N)CC2)C1 [Compound 1-220, 1-[2-cyano-4-(trifluoromethyl)phenyl]-4-[6-(1-methyl-1H-pyrrol-2-yl)pyridin-3-yl]-N-[(1-methylazetidin-3-yl)methyl]piperidine-4-carboxamide]
< 10 nM | CN1CC[C@@H](NC(=O)C2(c3ccc(-c4ccnn4C)nc3)CCN(c3ccc(C(F)(F)F)cc3C#N)CC2)C1 [Compound 1-43, 1-[2-cyano-4-(trifluoromethyl)phenyl]-4-[6-(1-methyl-1H-pyrazol-5-yl)pyridin-3-yl]-N-[(3R)-1-methylpyrrolidin-3-yl]piperidine-4-carboxamide]
< 10 nM | COc1ccc(F)cc1-c1ccc(C2(C(=O)N[C@H]3CCN(C)C3)CCN(c3ccc(C(F)(F)F)cc3Cl)CC2)cn1 [Compound 1-155, 1-[2-chloro-4-(trifluoromethyl)phenyl]-4-[6-(5-fluoro-2-methoxyphenyl)pyridin-3-yl]-N-[(3S)-1-methylpyrrolidin-3-yl]piperidine-4-carboxamide]
< 10 nM | COc1ncccc1-c1ncc(C2(C(=O)N[C@H]3CCN(C)C3)CCN(c3ccc(C(F)(F)F)nc3C#N)CC2)cc1F [Compound 1-133, 1-[2-cyano-6-(trifluoromethyl)pyridin-3-yl]-4-{3-fluoro-2′-methoxy-[2,3′-bipyridin]-5-yl}-N-[(3S)-1-methylpyrrolidin-3-yl]piperidine-4-carboxamide]
< 10 nM | CN1CC[C@H](NC(=O)C2(c3ccc(-c4cccn4C4CC4)nc3)CCN(c3ccc(C(F)(F)F)cc3C#N)CC2)C1 [Compound 1-158, 1-[2-cyano-4-(trifluoromethyl)phenyl]-4-[6-(1-cyclopropyl-1H-pyrrol-2-yl)pyridin-3-yl]-N-[(3S)-1-methylpyrrolidin-3-yl]piperidine-4-carboxamide]
< 10 nM | COc1ccccc1-c1ccc(C2(C(=O)N[C@H]3CCN(C)C3)CCN(c3ccc(C(F)(F)F)cc3C#N)CC2)cn1 [Compound 1-166, 1-[2-cyano-4-(trifluoromethyl)phenyl]-4-[6-(2-methoxyphenyl)pyridin-3-yl]-N-[(3S)-1-methylpyrrolidin-3-yl]piperidine-4-carboxamide]
< 10 nM | CCOc1ncccc1-c1cnc(C2(C(=O)N[C@@H]3CCN(C)C3)CCN(c3ccc(C(F)(F)F)cc3C#N)CC2)cn1 [Compound 1-51, 1-[2-cyano-4-(trifluoromethyl)phenyl]-4-[5-(2-ethoxypyridin-3-yl)pyrazin-2-yl]-N-[(3R)-1-methylpyrrolidin-3-yl]piperidine-4-carboxamide]
< 10 nM | COc1ccccc1-c1ccc(C2(C(=O)NCCN3CCC3)CCN(c3ccc(C(F)(F)F)cc3C#N)CC2)cn1 [Compound 1-245, N-[2-(azetidin-1-yl)ethyl]-1-[2-cyano-4-(trifluoromethyl)phenyl]-4-[6-(2-methoxyphenyl)pyridin-3-yl]piperidine-4-carboxamide]
< 10 nM | COc1ccccc1-c1ccc(C2(C(=O)N[C@@H]3CCN(C)C3)CCN(c3ccc(C(F)(F)F)cc3C#N)CC2)cn1 [Compound 1-52, 1-[2-cyano-4-(trifluoromethyl)phenyl]-4-[6-(2-methoxyphenyl)pyridin-3-yl]-N-[(3R)-1-methylpyrrolidin-3-yl]piperidine-4-carboxamide]
< 10 nM | CCOc1ccccc1-c1ccc(C2(NC(=O)[C@H]3CCN(C)C3)CCN(c3ccc(Cl)cc3C#N)CC2)cn1 [Compound 2-28, (3S)—N-[1-(4-chloro-2-cyanophenyl)-4-[6-(2-ethoxyphenyl)pyridin-3-yl]piperidin-4-yl]-1-methylpyrrolidine-3-carboxamide]
< 10 nM | CCOc1ccc(F)cc1-c1ccc(C2(C(=O)N[C@@H]3CCN(C)C3)CCN(c3ccc(C(F)(F)F)cc3C#N)CC2)cn1 [Compound 1-69, 1-[2-cyano-4-(trifluoromethyl)phenyl]-4-[6-(2-ethoxy-5-fluorophenyl)pyridin-3-yl]-N-[(3R)-1-methylpyrrolidin-3-yl]piperidine-4-carboxamide]
< 10 nM | CN1CC(C(=O)NC2(c3ccc(-c4cccn4C)nc3)CCN(c3ccc(C(F)(F)F)cc3C#N)CC2)C1 [Compound 2-45, N-{1-[2-cyano-4-(trifluoromethyl)phenyl]-4-[6-(1-methyl-1H-pyrrol-2-yl)pyridin-3-yl]piperidin-4-yl}-1-methylazetidine-3-carboxamide]
